These results are taken from patent US8022105B2, “Prevention of neutrophil recruitment” (The Brigham and Women's Hospital, Inc., priority 1999, dated 2011).

The nature of data set [1]: Biostability of LX analogs in mouse whole blood. The note with it: incubated 3 h at 37° C., LC/MS/MS.
Method: (§1) LXA4 (21 mM) was incubated ex vivo in mouse whole blood for 3 h. […] (B) Biostability of LXA4 and stable analogs in mouse whole blood. LXA4, 15(R/S)-methyl-LXA4 (ATLa1, which carries a racemic methyl group at C-15), and 15-epi-16-(para-fluoro)-phenoxy-LXA4(ATLa2, in which a bulky (para-fluoro)-phenoxy group replaces the w-chain at C-16) were added (see Methods) to heparinized mouse whole blood and incubated at 37° C. for 0 and 3 h. Following centrifugation at 800×g and 0° C., the plasma supernatants were drawn off and stopped in two volumes of ice cold methanol. The lipoxins were extracted by solid phase methodology and quantitated by LC/MS/MS. Values represent means±SEM (n=3-4).
(§2) Biostability of LX analogs in mouse whole blood. […] The methyl formate fractions were taken to dryness with a gentle stream of nitrogen and suspended in methanol for injection and quantitative analyses by UV spectrophotometry and LC/MS/MS.
(§3) LC/MS/MS analyses. […] Samples were suspended in methanol and injected into the HPLC component, which consisted of a SpectraSYSTEM P4000 (Thermo Separation Products, San Jose, Calif.) quaternary gradient pump, a Prodigy octadecylsilane-3 (100×2 mm, 5 mm) column (Phenomenex, Torrance, Calif.) or a LUNA C18-2 (150×2 mm, 5 mm) column, and a rapid spectra scanning SpectraSYSTEM UV2000 (Thermo Separation Products, San Jose, Calif.) UV/VIS absorbance detector. […]
Data set [2] can be described thus: Biostability in human whole blood. In kind it is in vitro ADME.
For data set [3], the system named is isolated rat aorta. In words: Relaxation of pre-contracted isolated rat aorta. Also noted: relaxation as % of the level of relaxation caused by Iloprost: dose or concentration left out as unconfirmed. Conditions: for relaxation of smooth muscle: aorta pre-contracted with U46619 (25 ng/ml). As to the method:
Rats were euthanized with pentobarbital overdoses. The aorta was isolated and a pre-load of 300-400 mg given. The vessels were pre-contracted with U46619 (25 ng/ml). Relaxation was induced with addition of Iloprost, 5(R/S)-methyl-LXB4, ATLa1, or ATLa2 to a final concentration of […]. Aorta smooth muscle relaxation was measured with a force transducer and the data digitized and stored on a PC. 5(R/S)-methyl -LXB4, ATLa1, and ATLa2 caused 42.8%, 37.0%, 38.1%, and 40.0% relaxation of smooth muscle, respectively. Values represent±SEM (n=4-6).
For example, topical administration of LXA4 ([…]) induces arteriolar dilation in the hamster cheek with no change in venular diameters while systemic delivery into rats produces a vasoconstrictor response in the mesenteric bed (26). In addition, 20 min infusion of 1 or 2 mg/kg LXA4 induces renal vasorelaxation in rats without changing mean arterial pressure (27). To determine whether the increased stability of ATLa2 enhances potential vasoreactivity at the therapeutic dose found to inhibit PMN infiltration in FIGS. 2 and 5, vascular changes in response to ATLa2 were compared directly to those of Iloprost, a prostacyclin stable analog that rapidly stimulates arterial vasodilation (Grant, S. M. & Goa, K. L. (1992) Drugs 43, 899-924). Added to organ baths, ATLa2 relaxed precontracted isolated rat aorta to ˜40% of the level of relaxation caused by equimolar treatment ([…]) with Iloprost (not shown). […] In sharp contrast, injection of equimolar quantities of Iloprost elicited a maximum mean decrease of ˜28 mmHg ˜50 s post-injection, with pressure returning to baseline after ˜8 min.

The subject of data set [4] is TNF-a-induced PMN infiltration. The experiment in a line: TNF-a-induced PMN infiltration into mouse dorsal air pouch. In kind it is in vivo. The note with it: for inhibition of TNF-a-induced PMN infiltration, local air pouch delivery: local into air pouch prior to TNF-a (20 ng/mouse), ATLa2 and dexamethasone, ASA 1.0 mg/mouse. Details: toxicity to the mice: dose or concentration left out as unconfirmed. As to the method:
When injected locally into the air pouch, following injection of vehicle (900 ml PBS), murine TNF-a (20 ng/100 ml PBS) induced the infiltration of 4.8±1.1×10^6 PMN by 4 h. Dexamethasone (10 mg/air pouch), ASA (1 mg/air pouch), and ATLa2 (10 mg/air pouch) were locally administered in 900 ml PBS and prior to TNF-a. Systemic delivery of ATLa2 was by i.v. injection into the mouse tail vein (10 mg/mouse). 2.1±0.7×105 PMN were found in the air pouch 4 h after injection of vehicle (1 ml sterile PBS) alone. Values represent mean±SEM (n=3-5). *P<0.05, †P<0.15 Student's two-tailed t-test
PMN infiltration into mouse air pouch. While male BALB/c mice (6-8 wk) were anesthetized with isoflurane, dorsal air pouches were raised by injecting 3 ml of sterile air subcutaneously on days 0 and 3 (as in ref.) (Sin, Y. M., Sedgwick, A. D., Chea, E. P. & Willoughby, D. A. (1986) Ann. Rheum. Dis. 45, 873-877). On day 6 and while the mice were anesthetized with isoflurane, 10 mg of ATLa2 was delivered as a bolus injection into either the tail vein in 100 ml of sterile 0.9% saline or locally into the air pouch in 900 ml of PBS −/− (Dulbecco's Phosphate Buffered Saline without magnesium or calcium ions, BioWhittaker, Walkersville, Md.). Dexamethasone and ASA (Sigma Chemical Co., St. Louis, Mo.) were delivered locally as 10 mg and 1.0 mg doses in 900 ml of PBS −/−, respectively. Inflammation in the air pouch was induced by local injection of recombinant murine TNF-a (20 ng) (Boehringer Mannheim, Indianapolis, Ind.) dissolved in 100 ml of sterile PBS. While the mice were anesthetized with isoflurane, the air pouches were lavaged twice with 3 ml of sterile PBS 4 h after the initial TNF-a injection. Aspirates were centrifuged at 2000 rpm for 15 min at 23° C. The supernatants were removed and the cells were suspended in […] of PBS. Aliquots of the cell suspension were stained with Trypan Blue and enumerated by light microscopy. 50 ml of the resuspended aspirate cells were added to 150 ml of 30% BSA and centrifuged onto microscope slides at 2200 rpm for 4 min using a Cytofuge (StatSpin, Norwood, Mass.). Slides were allowed to air dry and were stained with Wright Giemsa stain (Sigma Chemical Co., St. Louis, Mo.) for determination of differential leukocyte counts. For microscopic analysis, tissues were obtained with a 6 mm tissue biopsy punch (Acu-Punch, Acuderm, Inc., Ft. Lauderdale, Fla.) and fixed in 10% buffered formaldehyde. Samples were then embedded in paraffin, sliced, and stained with hematoxylin-eosin.

Data set [5] can be described thus: Methyl ester hydrolysis of ATLa2 to free acid in ex vivo mouse whole blood. It is filed as in vitro ADME. The note with it: within 10-15 minutes, 2.8 μM in mouse whole blood. As to the method:
FIG. 7 represents methyl ester hydrolysis of ATLa2 to free acid in ex vivo mouse whole blood. ATLa2 was incubated ex vivo in mouse whole blood (2.8 μM) for 0, 2, 5, 10, 15, or 180 minutes. The incubations were stopped by chilling the blood on ice for one minute followed by centrifugation (800×g) at 0° C. The plasma supernatant was stopped in 2 vol of ice cold methanol. The samples were prepared for analysis by solid phase extraction and the amount of free acid in the sample was quantiitated by LC/MS/MS. Within 10-15 minutes, 100% of the ATLa2 methyl ester is hydrolyzed to the free acid without loss of compound. Values represent mean±SEM (n=3).

The nature of data set [6]: Mouse arterial pressure after tail vein injection. In kind it is in vivo. Details: maximum mean decrease in arterial pressure: dose or concentration left out as unconfirmed. Here is the method:
Mouse arterial pressure was monitored with a pressure transducer via the cannulated carotid artery. […] 10 mg of ATLa2 were injected into 3 mice with no change in mean arterial pressure. Values represent mean±SEM (n=3). Arterial pressure. Male BALB/c mice (6-8 wk, 20 g) were anesthetized with pentobarbital (80 mg/kg). The trachea was isolated and a small polyethylene catheter (PE50) was introduced to maintain a patent airway. The right carotid artery was isolated and cannulated with PE 10 tubing filled with heparinized (10 units/ml) normal saline. The arterial catheter was connected to a pressure transducer (World Precision Instruments, Sarasota, Fla.) and the arterial pressure tracing was recorded continuously (Astromed MT95K2, West Warwick, R.I.). All surgical manipulations were performed using a surgical microscope (Carl Zeiss, Inc., Thomwood, N.Y.).

The conditions of data set [7]: male, BALB/c, 3 h, 2.4 mM.
Method: as §1, §2, §3
Data set [8] deals with LTB4-induced PMN infiltration. Conditions: added topically, in vivo; cited from earlier work.

Structures are written as SMILES. “Also recorded” adds a separate entry of the source. Read-outs that look alike come from different tables or passages of the source.

For `CCCCCC(C)(O)/C=C/C=C\C=C\C=C\[C@@H](O)[C@@H](O)CCCC(=O)O` (mixture of isomers) [ATLa1, 15(R/S)-methyl-LXA4], the “remaining / recoverable in mouse whole blood” value in data set [1] is reported as approximately 90%. Moreover, in data set [2], the “biostability in human whole blood compared with mouse whole blood” value was “quantitatively similar results”. Also, the “relaxation of smooth muscle” value in data set [3] turned out to be 38.1%.

With `CCCCCC(O)C(O)C=CC=CC=CC=CC(C)(O)CCCC(=O)O` (racemic) [5(R/S)-methyl-LXB4], the “relaxation of smooth muscle” value in data set [3] was 37.0%.

Take `CC(=O)Oc1ccccc1C(=O)O` [ASA, acetylsalicylic acid, reference compound]: the “inhibition of TNF-a-induced PMN infiltration, local air pouch delivery” value (from here on “inhibition … local air pouch delivery”) in data set [4] (4 h) was determined as 69%.

On to `COC(=O)CCC[C@H](O)[C@H](O)/C=C/C=C/C=C\C=C\[C@H](O)COc1ccc(F)cc1` [ATLa2], for which the “inhibition of TNF-a-induced PMN infiltration, i.v. delivery” value in data set [4] (i.v. tail vein before TNF-a (20 ng/mouse), 4 h) amounted to 85%. Further, the “number of neutrophils in tissue lining of the air pouch (histology)” value in data set [4] (intra-pouch injection or i.v. prior to TNF-a) is on record as “reduced”. Moreover, in data set [4] (4 h), the “inhibition … local air pouch delivery” value is listed as approximately 77%. Further, the “toxicity to the mice” value in data set [4] (local or i.v.) is “no apparent toxicity”. Besides, the “relaxation of smooth muscle” value in data set [3] turned out to be 40.0%. In addition, the “relaxation as % of the level of relaxation caused by Iloprost” value in data set [3] (organ baths) was approximately 40%. The “ATLa2 methyl ester hydrolyzed to the free acid” value in data set [5] came to 100%. Moreover, the “change in mean arterial pressure” value in data set [6] ((24 nmol/mouse) tail vein injection) is on record as “no apparent changes; also recorded: no change”. Also, the “remaining / recoverable in mouse whole blood” value in data set [7] is approximately 100%.

Consider `CC#CCC(C)[C@H](O)/C=C/[C@@H]1[C@H]2C/C(=C/CCCC(=O)O)C[C@H]2C[C@H]1O` (stereo partly shown) [Iloprost, reference compound], for which the “relaxation of smooth muscle” value in data set [3] turned out to be 42.8%. In data set [6] (tail vein injection), the “time of maximum mean decrease post-injection” value is reported as approximately 50 s. Moreover, in data set [6] (tail vein injection, (equimolar to ATLa2)), the “maximum mean decrease in arterial pressure” value is given as approximately 28 mmHg.

On to `CCCCC[C@H](O)/C=C/C=C\C=C\C=C\[C@@H](O)[C@@H](O)CCCC(=O)O` [LXA4, 5S,6R,15S-trihydroxyeicosa-7E,9E,11Z,13E-tetraenoic acid], for which the “level of inhibition of LTB4-induced PMN recruitment compared to that of either ATLa1 or ATLa2” value in data set [8] was “less than 25%”.

For the compound `C[C@@H]1C[C@H]2[C@@H]3CCC4=CC(=O)C=C[C@]4(C)[C@@]3(F)[C@@H](O)C[C@]2(C)[C@@]1(O)C(=O)CO` [dexamethasone, reference compound], in data set [4] (4 h), the “inhibition … local air pouch delivery” value was found to be 61%.
